These are literature values, as cited in patent US10709666B2, “Carrier particles for dry powder formulations for inhalation” (CHIESI FARMACEUTICI S.P.A., priority 2017, dated 2020).

For the data set the following is noted: room temperature.

Molecules are shown by their SMILES.

Turning to `OC[C@@H](O)[C@@H](O)[C@H](O)[C@H](O)CO` [mannitol], the “saturated concentration in water” value was 18-21 % w/v.

With `O.OC[C@H]1O[C@@H](O[C@H]2[C@H](O)[C@@H](O)[C@@H](O)O[C@@H]2CO)[C@H](O)[C@@H](O)[C@H]1O` [alpha-lactose monohydrate], the “saturated concentration in water” value is given as 18-19 % w/v.
